Source: patent US20160206633A1, “dhS1P AND USE OF SAME AS AN ANTICANCER THERAPEUTIC AND IMMUNOMODULATOR” (Penn State Research Foundation, Inc., priority 2013, published 2016)

Experiments:
Assay type in all cases: cell-based, athymic nude mice
[1] = tested on: splenic hematopoietic progenitors (Lineage-Sca-1+CD117+); assay: Isolated splenic hematopoietic progenitors exposed to dhS1P, multicolor flow cytometry; conditions: 5 μM, 24-hour culture
Description: (§1) (A) Splenic IMCs (Gr-1+CD11b+, also defined as MDSCs: myeloid-derived suppressor cells) were isolated from MDA-MB-231 tumor-bearing athymic nude mice and exposed to BSA, S1P (5 μM), or dhS1P (5 μM). Following 24-hour culture incubation, cells were labeled with specific antibodies and analyzed by multicolor flow cytometry (red: IMCs; blue: possible B-cells). (B) Splenic IMCs were isolated from MDA-MB-231 tumor-bearing athymic nude mice and cultured (5×10^4 cells/mL) in GEMM-supportive semi-solid media with BSA, S1P (5 μM), or dhS1P (5 μM). GEMM colonies (multipotent myeloid progenitor cells) were visualized and counted after 3 weeks of culture. ANOVA, *p<0.01 compared to no treatment or BSA-treatment, ***p<0.001 compared to S1P-treatment, n≧3. (C) Splenic hematopoietic progenitors (Lineage-Sca-1+CD117+) were isolated from MDA-MB-231 tumor-bearing athymic nude mice and exposed to BSA, S1P (5 μM), or dhS1P (5 μM). Following 24-hour culture incubation, cells were labeled with specific antibodies and analyzed by multicolor flow cytometry.
Splenocytes were harvested from tumor-bearing mice by mechanical disruption in red blood cell lysis buffer. Splenocytes were washed, and resuspended in PBS with Mouse BD Fc Block (1 μg per 1×10^6 splenocytes), and incubated for 15 minutes at 4° C. For IMC isolation, antibodies targeting Gr-1 (FITC) and CD11b (PE-Cy7) were added. […]

[2] = tested on: isolated IMCs (GEMM colonies, multipotent myeloid progenitor cells); assay: CFU-GEMM colony forming assay of isolated IMCs; conditions: 5 μM, GEMM-supportive semi-solid media, 3 weeks of culture
Description: as §1, with “cytometry. […]” for “cytometry.”
Isolated IMCs from the spleens of tumor-bearing athymic nude mice were cultured (5×10^4 cells/mL) in GEMM-supportive complete (mouse) methylcellulose media (R&D Systems, Minneapolis, Minn.), according to the manufacturer's instructions, with BSA, S1P (5 μM), or dhS1P (5 μM). GEMM colonies were visualized and counted after 3 weeks of culture.

[3] = tested on: isolated MDSC-like cells; assay: Whole-genome RNA microarray of isolated MDSC-like cells after dhS1P; conditions: 24 hours dhS1P vs vehicle (BSA); fold-change cut-off 1.2, p-value cut-off 0.05
Description: To more closely evaluate the genetic consequences of the dhS1P-induced decrease in isolated MDSC-like cells and the increase in cells bearing the surface markers of B-cells, a RNA microarray analysis was conducted. MDSC-like cells were isolated from MDA-MB-231 tumor-bearing athymic nude mice, exposed for 24 hours to dhS1P or vehicle (BSA), followed by RNA extraction, and a whole-genome microarray was performed. As compared to vehicle-treated MDSC-like cells, dhS1P treatment of isolated MDSC-like cells altered the expression of a variety of genes.
Isolated MDSC-like cells were cultured for 24 hours in media containing BSA, or dhS1P ([…]), before collection and washing via centrifugation. […]
cDNA was purified according to standard procedures. cDNA was in vitro transcribed to synthesize cRNA using a MEGAscript kit (Ambion, Austin, Tex.). Samples were incubated with T7 10× reaction buffer, T7 Enzyme mix and Biotin-NTP mix at 37° C. for 14 hours. cRNA was purified according to instructions, and the yield was measured using a NanoDrop ND-1000 (NanoDrop Products, Wilmington, Del.). […] BeadChips were dried by centrifugation at 275×g for 4 minutes and subsequently scanned using a BeadArray Reader. […]

Compound: CCCCCCCCCCCCCCC[C@@H](O)[C@@H](N)COP(=O)(O)O [dhS1P, dihydrosphingosine-1-phosphate]
- CD19+CD45R B220+ cellular population from isolated hematopoietic progenitors [1]: mediated the expansion
- CFU-GEMM colony formation [2]: completely abrogated
- Number of significantly regulated genes [3]: 319
